US5025011A, “Fused pyridines active on the cardiovascular system” (SIMES, Societa Italiana Medicinali e Sintetici S.p.A., priority 1988, dated 1991)

Tests used:
rabbit mesenteric artery = experiment: Calcium antagonist activity: antagonizing the effect of Ca++ on preparations of rabbit mesenteric artery in Krebs depolarizer; format: cell-based; details: Oryctolagus cuniculus, Ca++ submaximal concentration 3 mM
Experimental: Calcium antagonist activity of the compounds of formula I has been tested as capability of antagonizing the effect of Ca^++ submaximal concentrations (3 mM) on preparations of rabbit mesenteric artery in Krebs depolarizer, prepared according to Towart "J. Cardiovasc. Pharmacol." 4, 895, (1982).

[1] = target: T1, mouse heart beta1 receptors (Mus musculus, UniProt P34971); experiment: beta-blocking activity: binding test towards beta1 heart receptors in mouse
T1 construct: beta1 heart receptors; from tissue; host or cells: mouse heart
T1 sequence (P34971 whole entry): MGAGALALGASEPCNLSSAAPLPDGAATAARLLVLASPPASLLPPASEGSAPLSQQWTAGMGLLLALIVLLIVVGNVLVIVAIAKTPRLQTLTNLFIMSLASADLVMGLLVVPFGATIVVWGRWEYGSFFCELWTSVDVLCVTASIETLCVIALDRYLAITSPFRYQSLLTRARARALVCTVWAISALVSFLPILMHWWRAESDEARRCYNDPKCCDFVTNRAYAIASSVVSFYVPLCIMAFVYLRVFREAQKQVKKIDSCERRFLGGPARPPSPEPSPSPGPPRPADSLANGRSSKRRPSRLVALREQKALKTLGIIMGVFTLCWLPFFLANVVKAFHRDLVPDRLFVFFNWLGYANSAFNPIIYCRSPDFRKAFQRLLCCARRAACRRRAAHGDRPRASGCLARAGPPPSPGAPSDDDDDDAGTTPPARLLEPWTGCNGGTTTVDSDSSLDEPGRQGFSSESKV
Text: (§1) Moreover the beta-blocking activity has been tested with i binding tests both towards beta1 heart receptors and beta2 lung receptors in mouse according to methods described in J. Biol. Chem., 253, 5090, (1978) and Br. J. Pharmacol., 68, 57, (1980).

[2] = target: T2, mouse lung beta2 receptors (Mus musculus, UniProt P18762); experiment: beta-blocking activity: binding test towards beta2 lung receptors in mouse
T2 construct: beta2 lung receptors in mouse; from tissue; host or cells: mouse lung
T2 sequence (P18762 whole entry): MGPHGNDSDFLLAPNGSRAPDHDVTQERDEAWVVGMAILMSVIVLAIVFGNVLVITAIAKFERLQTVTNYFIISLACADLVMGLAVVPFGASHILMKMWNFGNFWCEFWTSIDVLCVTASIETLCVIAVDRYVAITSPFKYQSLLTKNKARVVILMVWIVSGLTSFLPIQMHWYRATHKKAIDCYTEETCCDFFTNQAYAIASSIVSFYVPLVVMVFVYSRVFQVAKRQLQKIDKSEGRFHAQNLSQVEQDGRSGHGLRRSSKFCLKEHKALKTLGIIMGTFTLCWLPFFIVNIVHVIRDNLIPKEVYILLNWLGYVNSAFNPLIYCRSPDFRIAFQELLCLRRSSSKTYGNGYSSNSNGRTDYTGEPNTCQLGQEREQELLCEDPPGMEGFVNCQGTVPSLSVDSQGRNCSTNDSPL
Text: as §1

Row | IC50 (rabbit mesenteric artery) [µM] | Ki [1] [µM] | Ki [2] [µM] | SMILES
1 | 0.24 | 0.345 | 0.287 | CCOC(=O)C1=C(C)Nc2cnn(CCNCC(O)COc3ccccc3OC)c(=O)c2C1c1cccc([N+](=O)[O-])c1 (stereo not drawn) [Compound A, Ethyl 2-methyl-4-(3-nitrophenyl)-5-oxo-6-(2-(2-hydroxy-3-(2-methoxyphenoxy)-propylamino)-ethyl)-1,4,5,6-tetrahydro-pyrido(2,3-d)pyridaxine-3-carboxylate]
2 | 0.77 | 0.142 | 0.071 | CCOC(=O)C1=C(C)Nc2cnn(CC(C)(C)NCC(O)COc3ccccc3OC)c(=O)c2C1c1cccc([N+](=O)[O-])c1 (stereo not drawn) [Compound B]
